Experimental data reported in patent publication US8952024B2, “Herbicidal pyrimidone derivatives” (E I du Pont de Nemours and Company, priority 2009, dated 2015).

Legend:
Assay in all cases: Test B pre-/postemergence plant response
Type in all cases: in vivo
[1] = system: morningglory (Ipomoea coccinea)
How it was run: (§1)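 Response scores were assigned visually after 13 to 15 days in a greenhouse, comparing treated pots with controls on a 0–100 scale where 100 denotes complete control. Preemergence treatments went onto freshly seeded loam/sand soil; postemergence treatments onto plants 2 to 18 cm tall.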

[2] = system: downy bromegrass (Bromus tectorum)
How it was run: as §1

[3] = system: bermudagrass (Cynodon dactylon)
How it was run: as §1

[4] = system: woolly cupgrass (Eriochloa villosa)
How it was run: as §1

[5] = system: green foxtail (Setaria viridis)
How it was run: as §1

[6] = system: ragweed (common ragweed, Ambrosia elatior)
How it was run: as §1

[7] = system: goosegrass (Eleusine indica)
How it was run: as §1

[8] = system: yellow nutsedge (Cyperus esculentus)
How it was run: as §1

[9] = system: large crabgrass (Digitaria sanguinalis)
How it was run: as §1

[10] = system: giant foxtail (Setaria faberii)
How it was run: as §1

[11] = system: johnsongrass (Sorghum halepense)
How it was run: as §1

[12] = system: Italian ryegrass (Lolium multiflorum)
How it was run: as §1

corn (Zea mays) = system: corn (Zea mays)
How it was run: as §1

[13] = Postemergence, 62 g ai/ha, scale 0 (no effect) to 100 (complete control), 13 to 15 days
[14] = Postemergence, 125 g ai/ha, visual rating after 13 to 15 days, scale 0 (no effect) to 100 (complete control)
[15] = Postemergence, 250 g ai/ha, scale 0 to 100 (0 no effect, 100 complete control)
[16] = Preemergence, 62 g ai/ha, scale 0 to 100 (0 no effect, 100 complete control)
[17] = Preemergence, 125 g ai/ha, scale 0 to 100, 0 no effect, 100 complete control
[18] = 31 g ai/ha, postemergence, scale 0 to 100, 0 is no effect, 100 is complete control
[19] = 250 g ai/ha, Preemergence, 0 to 100 scale
[20] = Preemergence, 31 g ai/ha, scale 0 to 100 (0 no effect, 100 complete control)
[21] = Postemergence, 31 g ai/ha, 0 to 100 scale (0 no effect, 100 complete control)
[22] = Postemergence, 125 g ai/ha, scale 0 to 100 (0 no effect, 100 complete control)
[23] = Postemergence, 250 g ai/ha, scale 0 to 100 (0 no effect, 100 complete control), 13 to 15 days
[24] = 62 g ai/ha, postemergence, 0 is no effect, 100 is complete control, 13 to 15 days

O=C1CCCC(O)=C1C(=O)c1cnc(-c2ccccc2)n(CC2CCCO2)c1=O (stereo not shown) [Compound 59]
0: Plant response rating, Morningglory [1, 16] | Plant response rating, Bromegrass, Downy [2, 19] | Plant response rating, Bromegrass, Downy [2, 20] | Plant response rating, Bromegrass, Downy [2, 16] | Plant response rating, Bromegrass, Downy [2, 17] | Plant response rating, Foxtail, Giant [10, 20] | Plant response rating, Foxtail, Giant [10, 16] | Plant response rating, Ryegrass, Italian [12, 20] | Plant response rating, Ryegrass, Italian [12, 16] | Plant response rating, Corn (corn (Zea mays); [19]) | Plant response rating, Corn (corn (Zea mays); [13]) | Plant response rating, Corn (corn (Zea mays); [20]) | Plant response rating, Corn (corn (Zea mays); [16]) | Plant response rating, Corn (corn (Zea mays); [17])
50: Plant response rating, Morningglory [1, 13] | Plant response rating, Foxtail, Green [5, 18] | Plant response rating, Ryegrass, Italian [12, 13]
80: Plant response rating, Morningglory [1, 14] | Plant response rating, Morningglory [1, 15] | Plant response rating, Ragweed [6, 13] | Plant response rating, Goosegrass [7, 13] | Plant response rating, Crabgrass, Large [9, 18] | Plant response rating, Johnsongrass [11, 17] | Plant response rating, Ryegrass, Italian [12, 15]
75: Plant response rating, Cupgrass, Woolly [4, 18] | Plant response rating, Cupgrass, Woolly [4, 13] | Plant response rating, Ragweed [6, 18] | Plant response rating, Ragweed [6, 20] | Plant response rating, Goosegrass [7, 18] | Plant response rating, Nutsedge, Yellow [8, 15] | Plant response rating, Foxtail, Giant [10, 18] | Plant response rating, Foxtail, Giant [10, 19] | Plant response rating, Johnsongrass [11, 13] | Plant response rating, Corn (corn (Zea mays); [14]) | Plant response rating, Corn (corn (Zea mays); [15])
90: Plant response rating, Bermudagrass [3, 13] | Plant response rating, Cupgrass, Woolly [4, 14] | Plant response rating, Foxtail, Green [5, 17] | Plant response rating, Ragweed [6, 14] | Plant response rating, Ragweed [6, 16] | Plant response rating, Ragweed [6, 17] | Plant response rating, Foxtail, Giant [10, 13] | Plant response rating, Johnsongrass [11, 19]
45: Plant response rating, Bromegrass, Downy [2, 15] | Plant response rating, Nutsedge, Yellow [8, 18]
70: Plant response rating, Foxtail, Green [5, 13] | Plant response rating, Foxtail, Green [5, 14] | Plant response rating, Foxtail, Green [5, 15] | Plant response rating, Foxtail, Green [5, 16] | Plant response rating, Nutsedge, Yellow [8, 14] | Plant response rating, Ryegrass, Italian [12, 14]
100: Plant response rating, Bermudagrass [3, 15] | Plant response rating, Goosegrass [7, 19] | Plant response rating, Goosegrass [7, 17] | Plant response rating, Crabgrass, Large [9, 15] | Plant response rating, Johnsongrass [11, 14] | Plant response rating, Johnsongrass [11, 15]
55: Plant response rating, Morningglory [1, 17] | Plant response rating, Nutsedge, Yellow [8, 20] | Plant response rating, Crabgrass, Large [9, 20]
5: Plant response rating, Bromegrass, Downy [2, 18] | Plant response rating, Ryegrass, Italian [12, 18]
35: Plant response rating, Bromegrass, Downy [2, 14]
98: Plant response rating, Bermudagrass [3, 19] | Plant response rating, Bermudagrass [3, 14] | Plant response rating, Bermudagrass [3, 16] | Plant response rating, Bermudagrass [3, 17] | Plant response rating, Foxtail, Green [5, 19] | Plant response rating, Goosegrass [7, 20] | Plant response rating, Goosegrass [7, 16] | Plant response rating, Crabgrass, Large [9, 19] | Plant response rating, Crabgrass, Large [9, 17]
65: Plant response rating, Cupgrass, Woolly [4, 16] | Plant response rating, Cupgrass, Woolly [4, 17] | Plant response rating, Nutsedge, Yellow [8, 16]
20: Plant response rating, Ryegrass, Italian [12, 17]
95: Plant response rating, Cupgrass, Woolly [4, 15] | Plant response rating, Ragweed [6, 15] | Plant response rating, Goosegrass [7, 14] | Plant response rating, Goosegrass [7, 15] | Plant response rating, Crabgrass, Large [9, 14] | Plant response rating, Crabgrass, Large [9, 16] | Plant response rating, Foxtail, Giant [10, 14] | Plant response rating, Foxtail, Giant [10, 15]
30: Plant response rating, Bromegrass, Downy [2, 13]
10: Plant response rating, Bermudagrass [3, 20] | Plant response rating, Cupgrass, Woolly [4, 20]
60: Plant response rating, Nutsedge, Yellow [8, 13] | Plant response rating, Foxtail, Giant [10, 17]
85: Plant response rating, Cupgrass, Woolly [4, 19] | Plant response rating, Nutsedge, Yellow [8, 17] | Plant response rating, Crabgrass, Large [9, 13]

Cc1ccc(F)cc1-n1c(-c2cccc(Cl)c2)ncc(C(=O)C2=C(O)CCCC2=O)c1=O [Compound 157]
65: Plant response rating, Bromegrass, Downy [2, 23]
30: Plant response rating, Nutsedge, Yellow [8, 21] | Plant response rating, Ryegrass, Italian [12, 22]
45: Plant response rating, Nutsedge, Yellow [8, 23]
35: Plant response rating, Ryegrass, Italian [12, 23]
75: Plant response rating, Bermudagrass [3, 21]
98: Plant response rating, Cupgrass, Woolly [4, 22] | Plant response rating, Cupgrass, Woolly [4, 23] | Plant response rating, Goosegrass [7, 22] | Plant response rating, Crabgrass, Large [9, 22] | Plant response rating, Foxtail, Giant [10, 21]
90: Bermudagrass plant response rating (0 to 100 scale) [3, 24] | Plant response rating, Ragweed [6, 21]
60: Plant response rating, Bromegrass, Downy [2, 22]
85: Plant response rating, Cupgrass, Woolly [4, 21] | Plant response rating, Foxtail, Green [5, 22] | Plant response rating, Goosegrass [7, 21]
100: Plant response rating, Morningglory [1, 23] | Plant response rating, Bermudagrass [3, 22] | Plant response rating, Bermudagrass [3, 23] | Plant response rating, Ragweed [6, 22] | Plant response rating, Ragweed [6, 23] | Plant response rating, Goosegrass [7, 23] | Plant response rating, Crabgrass, Large [9, 23] | Plant response rating, Foxtail, Giant [10, 22] | Plant response rating, Foxtail, Giant [10, 23] | Plant response rating, Johnsongrass [11, 22] | Plant response rating, Johnsongrass [11, 23] | Plant response rating, Corn (corn (Zea mays); [23])
20: Plant response rating, Morningglory [1, 21]
80: Plant response rating, Crabgrass, Large [9, 21]
10: Plant response rating, Ryegrass, Italian [12, 21]
70: Plant response rating, Foxtail, Green [5, 21] | Plant response rating, Johnsongrass [11, 21] | Plant response rating, Corn (corn (Zea mays); [21])
95: Plant response rating, Morningglory [1, 22] | Plant response rating, Foxtail, Green [5, 23] | Plant response rating, Corn (corn (Zea mays); [22])
40: Bromegrass, Downy plant response rating (0 to 100 scale) [2, 24] | Plant response rating, Bromegrass, Downy [2, 21] | Plant response rating, Nutsedge, Yellow [8, 22]
